Key:
Type in all cases: cell-based
Details in all cases: fluorescent calcium assay
TRPML2 = molecular target: T1, TRPML2 (Homo sapiens, UniProt Q8IZK6); assay: Fluorescent TRPML2 assay (performed as for TRPML1, substituting the TRPML2 subtype)
T1 construct: expressed in transfected cells
T1 sequence (Q8IZK6 1-566): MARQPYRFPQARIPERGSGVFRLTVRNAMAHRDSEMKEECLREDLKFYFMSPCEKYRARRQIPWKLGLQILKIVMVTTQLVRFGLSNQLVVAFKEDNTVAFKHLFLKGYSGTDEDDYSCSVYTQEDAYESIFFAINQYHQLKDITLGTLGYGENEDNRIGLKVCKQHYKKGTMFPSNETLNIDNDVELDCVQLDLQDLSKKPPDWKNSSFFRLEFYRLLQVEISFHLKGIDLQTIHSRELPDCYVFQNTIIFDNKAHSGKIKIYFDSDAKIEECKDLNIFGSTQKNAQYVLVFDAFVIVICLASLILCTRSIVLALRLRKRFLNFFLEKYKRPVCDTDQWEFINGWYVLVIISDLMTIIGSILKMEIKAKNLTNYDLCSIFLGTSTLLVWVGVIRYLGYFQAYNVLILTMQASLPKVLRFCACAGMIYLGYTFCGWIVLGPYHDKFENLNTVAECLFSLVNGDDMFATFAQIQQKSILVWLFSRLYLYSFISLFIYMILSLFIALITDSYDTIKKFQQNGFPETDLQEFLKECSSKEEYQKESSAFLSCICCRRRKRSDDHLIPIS
How it was run: (§1)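 Doxycycline-induced (0.5 ug/mL) HEK-293 Trex cells stably expressing surface-directed mutant channel were loaded with 1 micromolar Fluo4-AM, resuspended in Ringer's with 10 mM calcium and added to compound plates. Fluorescence (ex 480, em 540 nm) gave percent activity versus on-plate controls; EC50 by non-linear regression.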

TRPML3 = molecular target: T2, TRPML3 (Homo sapiens, UniProt Q8TDD5); assay: Fluorescent TRPML3 assay (performed as for TRPML1, substituting the TRPML3 subtype)
T2 construct: expressed in transfected cells
T2 sequence (Q8TDD5 1-553): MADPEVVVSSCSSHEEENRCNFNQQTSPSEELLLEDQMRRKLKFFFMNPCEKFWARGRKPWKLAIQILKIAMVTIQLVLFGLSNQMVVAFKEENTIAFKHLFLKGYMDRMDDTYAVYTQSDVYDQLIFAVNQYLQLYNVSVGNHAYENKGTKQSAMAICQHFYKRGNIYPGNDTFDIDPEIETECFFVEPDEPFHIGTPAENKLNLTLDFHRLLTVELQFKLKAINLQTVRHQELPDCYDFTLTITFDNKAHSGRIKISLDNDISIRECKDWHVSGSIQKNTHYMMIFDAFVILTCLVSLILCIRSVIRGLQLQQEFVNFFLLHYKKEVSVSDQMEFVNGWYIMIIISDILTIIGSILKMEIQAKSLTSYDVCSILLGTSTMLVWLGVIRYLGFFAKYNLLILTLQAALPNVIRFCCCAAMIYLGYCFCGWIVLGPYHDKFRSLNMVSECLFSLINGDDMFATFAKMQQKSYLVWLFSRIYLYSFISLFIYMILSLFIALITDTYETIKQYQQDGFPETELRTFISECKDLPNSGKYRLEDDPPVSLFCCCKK
How it was run: as §1

TRPML1 = TRPML1 (Homo sapiens, UniProt Q9GZU1); assay: Fluorescent TRPML1 assay (Fluo4-AM calcium fluorescence in doxycycline-induced HEK-293 Trex cells)
TRPML1, sequence (Q9GZU1 whole entry L15A/L16A/L577A/L578A, form open): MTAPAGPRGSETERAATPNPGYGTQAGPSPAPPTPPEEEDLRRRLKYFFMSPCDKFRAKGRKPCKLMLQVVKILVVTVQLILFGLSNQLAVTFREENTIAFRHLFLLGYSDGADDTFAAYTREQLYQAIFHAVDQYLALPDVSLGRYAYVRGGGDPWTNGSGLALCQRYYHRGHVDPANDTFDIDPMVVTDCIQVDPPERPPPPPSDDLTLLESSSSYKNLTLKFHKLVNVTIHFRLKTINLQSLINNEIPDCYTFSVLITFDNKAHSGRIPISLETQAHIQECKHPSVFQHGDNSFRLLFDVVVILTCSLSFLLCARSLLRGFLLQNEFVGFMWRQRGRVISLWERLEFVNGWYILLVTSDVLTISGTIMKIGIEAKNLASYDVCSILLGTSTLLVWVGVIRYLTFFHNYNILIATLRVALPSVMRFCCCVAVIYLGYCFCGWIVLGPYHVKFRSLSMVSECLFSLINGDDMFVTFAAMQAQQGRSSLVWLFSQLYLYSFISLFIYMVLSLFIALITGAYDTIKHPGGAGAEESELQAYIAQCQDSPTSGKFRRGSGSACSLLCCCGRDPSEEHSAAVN
How it was run: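 HEK-293 Trex cells stably carrying human TRPML1 (surface-trafficking mutant) were induced overnight with 0.5 ug/mL doxycycline, loaded with 1 micromolar Fluo4-AM, and suspended in Ringer's with 10 mM calcium. Compounds at 20 micromolar to 6 nanomolar final, half-log steps, triplicate; fluorescence 480/540 nm gave percent activity versus controls and EC50 by non-linear regression.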

Row | EC50 (TRPML2) [nM] | EC50 (TRPML3) [nM] | EC50 (TRPML1) [nM] | SMILES
1 | < 100 | < 100 | < 100 | C[C@H]1CN(C(=O)OC(C)(C)C(F)(F)F)CCN1c1ncnc2c1c(C1CC1)cn2-c1cccc(Cl)c1 [Compound 140, 1,1,1-trifluoro-2-methylpropan-2-yl (S)-4-(7-(3-chlorophenyl)-5-cyclopropyl-7H-pyrrolo[2,3-d]pyrimidin-4-yl)-3-methylpiperazine-1-carboxylate]
2 | 100 to 500 | < 100 | < 100 | C[C@@H]1CN(C(=O)OC(C)(C)C(F)(F)F)CCN1c1ncnc2c1c(C1CC1)cn2-c1ccc(Cl)cc1 [Compound 141, 1,1,1-trifluoro-2-methylpropan-2-yl (R)-4-(7-(4-chlorophenyl)-5-cyclopropyl-7H-pyrrolo[2,3-d]pyrimidin-4-yl)-3-methylpiperazine-1-carboxylate]
3 | 500 to 2000 | < 100 | < 100 | C[C@@H]1CN(c2ncnc3c2c(-c2ccccc2F)cn3-c2cccnc2)[C@@H](C)CN1C(=O)OC(C)(C)C [Compound 142, tert-butyl (2R,5S)-4-(5-(2-fluorophenyl)-7-(pyridin-3-yl)-7H-pyrrolo[2,3-d]pyrimidin-4-yl)-2,5-dimethylpiperazine-1-carboxylate]
4 | > 2000 | 500 to 2000 | 100 to 500 | CCOC(=O)N1C[C@H](C)N(c2ncnc3c2c(-c2ccccc2F)cn3-c2cccnc2)C[C@H]1C [Compound 143, ethyl (2R,5S)-4-(5-(2-fluorophenyl)-7-(pyridin-3-yl)-7H-pyrrolo[2,3-d]pyrimidin-4-yl)-2,5-dimethylpiperazine-1-carboxylate]
5 | 500 to 2000 | < 100 | < 100 | CCOC(=O)N1C[C@H](C)N(c2ncnc3c2c(-c2ccccc2F)cn3-c2cc(C)ccn2)C[C@H]1C [Compound 144, ethyl (2R,5S)-4-(5-(2-fluorophenyl)-7-(4-methylpyridin-2-yl)-7H-pyrrolo[2,3-d]pyrimidin-4-yl)-2,5-dimethylpiperazine-1-carboxylate]
6 | < 100 | < 100 | 100 to 500 | CC(C)(C)OC(=O)N1CCN(c2ncnc3c2c(C2CC2)cn3-c2ccc(Cl)c(F)c2)CC1 [Compound 145, tert-butyl 4-(7-(4-chloro-3-fluorophenyl)-5-cyclopropyl-7H-pyrrolo[2,3-d]pyrimidin-4-yl)piperazine-1-carboxylate]
7 | 100 to 500 | < 100 | 100 to 500 | CC(C)(C)OC(=O)N1CCN(c2ncnc3c2c(C2CC2)cn3-c2cc(F)cc(F)c2)CC1 [Compound 146, tert-butyl 4-(5-cyclopropyl-7-(3,5-difluorophenyl)-7H-pyrrolo[2,3-d]pyrimidin-4-yl)piperazine-1-carboxylate]
8 | 100 to 500 | < 100 | 100 to 500 | C[C@@H]1CN(C(=O)OC(C)(C)C)CCN1c1ncnc2c1c(C1CC1)cn2-c1ccc(Cl)cc1 [Compound 147, tert-butyl (R)-4-(7-(4-chlorophenyl)-5-cyclopropyl-7H-pyrrolo[2,3-d]pyrimidin-4-yl)-3-methylpiperazine-1-carboxylate]
9 | 100 to 500 | < 100 | < 100 | C[C@H]1CN(C(=O)OC(C)(C)C(F)(F)F)CCN1c1ncnc2c1c(C1CC1)cn2-c1ccc(Cl)cc1 [Compound 148, 1,1,1-trifluoro-2-methylpropan-2-yl (S)-4-(7-(4-chlorophenyl)-5-cyclopropyl-7H-pyrrolo[2,3-d]pyrimidin-4-yl)-3-methylpiperazine-1-carboxylate]
10 | 500 to 2000 | 100 to 500 | 100 to 500 | Cc1cncc(-n2cc(C3CC3)c3c(N4CCN(C(=O)OC(C)(C)C)CC4)ncnc32)c1 [Compound 149, tert-butyl 4-(5-cyclopropyl-7-(5-methylpyridin-3-yl)-7H-pyrrolo[2,3-d]pyrimidin-4-yl)piperazine-1-carboxylate]
11 | 500 to 2000 | 100 to 500 | 100 to 500 | Cc1cncc(-n2cc(C3CC3)c3c(N4CCN(C(=O)OC(C)(C)C)C[C@@H]4C)ncnc32)c1 [Compound 150, tert-butyl (S)-4-(5-cyclopropyl-7-(5-methylpyridin-3-yl)-7H-pyrrolo[2,3-d]pyrimidin-4-yl)-3-methylpiperazine-1-carboxylate]
12 | 100 to 500 | 100 to 500 | 100 to 500 | CC(C)(C)OC(=O)N1CCN(c2ncnc3c2c(-c2ccccn2)cn3-c2ccc(F)c(Cl)c2)CC1 [Compound 151, tert-butyl 4-(7-(3-chloro-4-fluorophenyl)-5-(pyridin-2-yl)-7H-pyrrolo[2,3-d]pyrimidin-4-yl)piperazine-1-carboxylate]
13 | > 2000 | 500 to 2000 | 500 to 2000 | CCOC(=O)N1CCN(c2ncnc3c2c(-c2ccccn2)cn3-c2ccc(F)c(Cl)c2)CC1 [Compound 152, ethyl 4-(7-(3-chloro-4-fluorophenyl)-5-(pyridin-2-yl)-7H-pyrrolo[2,3-d]pyrimidin-4-yl)piperazine-1-carboxylate]
14 | < 100 | < 100 | < 100 | C[C@H]1CN(C(=O)OC(C)(C)C)CCN1c1ncnc2c1c(-c1ccccn1)cn2-c1ccc(F)c(Cl)c1 [Compound 154, tert-butyl (S)-4-(7-(3-chloro-4-fluorophenyl)-5-(pyridin-2-yl)-7H-pyrrolo[2,3-d]pyrimidin-4-yl)-3-methylpiperazine-1-carboxylate]
15 | 500 to 2000 | 100 to 500 | 100 to 500 | CCOC(=O)N1CCN(c2ncnc3c2c(-c2ccccn2)cn3-c2ccc(F)c(Cl)c2)[C@@H](C)C1 [Compound 155, ethyl (S)-4-(7-(3-chloro-4-fluorophenyl)-5-(pyridin-2-yl)-7H-pyrrolo[2,3-d]pyrimidin-4-yl)-3-methylpiperazine-1-carboxylate]
16 | 100 to 500 | < 100 | 100 to 500 | CC(C)(C)OC(=O)N1CCN(c2nccc3c2c(C2CC2)cn3-c2ccc(Cl)cc2)CC1 [Compound 156, tert-butyl 4-(1-(4-chlorophenyl)-3-cyclopropyl-1H-pyrrolo[3,2-c]pyridin-4-yl)piperazine-1-carboxylate]
17 | 100 to 500 | < 100 | 100 to 500 | C[C@@H]1CN(C(=O)OC(C)(C)C)CCN1c1ncnc2c1c(C1CCCC1)cn2-c1cccc(Cl)c1 [Compound 157, tert-butyl (R)-4-(7-(3-chlorophenyl)-5-cyclopentyl-7H-pyrrolo[2,3-d]pyrimidin-4-yl)-3-methylpiperazine-1-carboxylate]
18 | < 100 | < 100 | < 100 | C[C@H]1CN(C(=O)OC(C)(C)C)CCN1c1ncnc2c1c(C1CCCC1)cn2-c1cccc(Cl)c1 [Compound 158, tert-Butyl (S)-4-(7-(3-chlorophenyl)-5-cyclopentyl-7H-pyrrolo[2,3-d]pyrimidin-4-yl)-3-methylpiperazine-1-carboxylate]
19 | 100 to 500 | 100 to 500 | 100 to 500 | Cc1ccc(Cl)cc1-n1cc(-c2ccccn2)c2c(N3CCN(C(=O)OC(C)(C)C)CC3C)ncnc21 (stereo not drawn) [Compound 159, tert-butyl 4-(7-(5-chloro-2-methylphenyl)-5-(pyridin-2-yl)-7H-pyrrolo[2,3-d]pyrimidin-4-yl)-3-methylpiperazine-1-carboxylate]
20 | 100 to 500 | < 100 | 100 to 500 | Cc1c(Cl)cccc1-n1cc(-c2ccccn2)c2c(N3CCN(C(=O)OC(C)(C)C)CC3C)ncnc21 (stereo not drawn) [Compound 160, tert-butyl 4-(7-(3-chloro-2-methylphenyl)-5-(pyridin-2-yl)-7H-pyrrolo[2,3-d]pyrimidin-4-yl)-3-methylpiperazine-1-carboxylate]

— patent US20250136606A1, “MODULATORS OF TRPML, THEIR COMPOSITIONS AND METHODS OF USE” (Caraway Therapeutics, Inc., priority 2021, published 2025)
